This is an account of results in US20250064789A1, “KETOAMIDE DERIVATIVES AND PHARMACEUTICAL USES THEREOF” (priority 2022, published 2025).

The target of one assay is recombinant SARS-CoV-2 M^pro (Severe acute respiratory syndrome coronavirus 2 (2019-nCoV) (SARS-CoV-2), UniProt P0DTD1). The assay is described as follows: Inhibition of SARS-CoV-2 M^pro enzyme activity (fluorescent substrate assay). Type of assay: biochemical. The note with it: inhibition of SARS-CoV-2 M^pro enzyme activity; values given in μM; read-out: IC50.
In general, IC50 refers to the concentration that gives 50% inhibition. For `C[C@@H](NC(=O)c1ccccn1)C(=O)N[C@H](Cc1ccccc1)C(=O)C(=O)NCc1ccccn1` [Compound 141], the half-inhibitory concentration (IC50) was determined as 1.16 ± 0.24 µM.
In the case of `C[C@@H](NC(=O)c1cccnc1)C(=O)N[C@H](Cc1ccccc1)C(=O)C(=O)NCc1ccccn1` [Compound 142], the concentration for half-maximal inhibition (IC50) was found to be 1.21 ± 0.89 µM.
`CN(C(=O)C1CCC(F)(F)CC1)C1(C(=O)N[C@H](Cc2ccccc2)C(=O)C(=O)NCc2ccccn2)CC1` [Compound 167]: the IC50 worked out at 3.81 ± 0.17 µM.

Still in this assay, the particulars now being: inhibition of SARS-CoV-2 M^pro enzyme activity; values in nM; read-out: IC50.
As to `C[C@H](C(=O)N[C@H](Cc1ccccc1)C(=O)C(=O)NCc1ccccn1)N(C)C(=O)C1CCC(F)(F)CC1` [Compound 119], the IC50 was 0.0165 ± 0.0015 µM.
With `C[C@@H](NC(=O)C1CCC(F)(F)CC1)C(=O)N[C@H](Cc1ccccc1)C(=O)C(=O)NCc1ccc(Cl)cn1` [Compound 120], the half-maximal inhibitory concentration (IC50) worked out at 0.1133 ± 0.001 µM.
Regarding `C[C@@H](NC(=O)C1CCC(F)(F)C1)C(=O)N[C@H](Cc1ccccc1)C(=O)C(=O)NCc1ccccn1` (stereo partly shown) [Compound 121], the IC50 amounted to 0.0507 ± 0.0004 µM.
For `C[C@@H](NC(=O)[C@H]1CC(=O)N([C@@H](C)c2ccccc2)C1)C(=O)N[C@H](Cc1ccccc1)C(=O)C(=O)NCc1ccccn1` [Compound 122], the IC50 is 0.2809 ± 0.0023 µM.
Same read-out and setting: with `CC[C@@H](C(=O)N[C@H](C)C(=O)N[C@H](Cc1ccccc1)C(=O)C(=O)NCc1ccccn1)N1CCCC1=O` [Compound 123] the figure was 0.163 ± 0.002 µM.
In the case of `C[C@H](c1ccccc1)N1C[C@H](C(=O)N[C@H](C)C(=O)N[C@H](Cc2ccccc2)C(=O)C(=O)NCc2ccccn2)CC1=O` [Compound 124], the IC50 is 0.0451 ± 0.0006 µM.
For the compound `C[C@@H](NC(=O)CC1CCC(F)(F)CC1)C(=O)N[C@H](Cc1ccccc1)C(=O)C(=O)NCc1ccccn1` [Compound 125], the IC50 turned out to be 0.0197 ± 0.0012 µM.
Turning to `C[C@@H](NC(=O)[C@H]1CC[C@@H](F)CC1)C(=O)N[C@H](Cc1ccccc1)C(=O)C(=O)NCc1ccccn1` [Compound 127], the 50% inhibitory concentration (IC50) came to 0.0408 ± 0.0006 µM.
Still for that read-out and setting: with `C[C@@H](NC(=O)C1(F)CCCCC1)C(=O)N[C@H](Cc1ccccc1)C(=O)C(=O)NCc1ccccn1` [Compound 128] the figure was 0.0094 ± 0.0013 µM; with `CC(C(=O)N[C@H](C)C(=O)N[C@H](Cc1ccccc1)C(=O)C(=O)NCc1ccccn1)C1CCCCC1` (stereo partly shown) [Compound 130], 0.0986 ± 0.0068 µM; with `C[C@@H](NC(=O)CC1CCS(=O)(=O)CC1)C(=O)N[C@H](Cc1ccccc1)C(=O)C(=O)NCc1ccccn1` [Compound 131], 0.0368 ± 0.0001 µM.
On the same count and under the same terms, with `C[C@@H](NC(=O)c1cnn(-c2ccccc2)c1)C(=O)N[C@H](Cc1ccccc1)C(=O)C(=O)NCc1ccccn1` [Compound 132] the figure was 0.158 ± 0.0262 µM.
On to `C[C@@H](NC(=O)[C@H]1CC[C@@H](NC(=O)OC(C)(C)C)CC1)C(=O)N[C@H](Cc1ccccc1)C(=O)C(=O)NCc1ccccn1` [Compound 133], for which the IC50 came to 0.198 ± 0.0096 µM.
Regarding `C[C@@H](NC(=O)CC1CC(F)(F)C1)C(=O)N[C@H](Cc1ccccc1)C(=O)C(=O)NCc1ccccn1` [Compound 134], the half-inhibitory concentration (IC50) is 0.0245 µM.
In the case of `C[C@@H](NC(=O)CC1CCOCC1)C(=O)N[C@H](Cc1ccccc1)C(=O)C(=O)NCc1ccccn1` [Compound 135], the IC50 was 0.0573 ± 0.0053 µM.
The same measure, in the same setting: with `C[C@@H](NC(=O)CC1CCOC(C)(C)C1)C(=O)N[C@H](Cc1ccccc1)C(=O)C(=O)NCc1ccccn1` (stereo partly shown) [Compound 136] the figure was 0.0965 ± 0.0022 µM.
As for `C[C@@H](NC(=O)c1ccccc1)C(=O)N[C@H](Cc1ccccc1)C(=O)C(=O)NCc1ccccn1` [Compound 137, N—((R)-1-(((R)-3,4-dioxo-1-phenyl-4-((pyridin-2-ylmethyl)amino)butan-2-yl)amino)-1-oxopropan-2-yl)benzamide], the IC50 was 0.0221 ± 0.0077 µM.
`C[C@@H](NC(=O)c1ccccc1F)C(=O)N[C@H](Cc1ccccc1)C(=O)C(=O)NCc1ccccn1` [Compound 138]: the IC50 came to 0.0486 ± 0.0004 µM.
Regarding `C[C@@H](NC(=O)c1cccc(F)c1)C(=O)N[C@H](Cc1ccccc1)C(=O)C(=O)NCc1ccccn1` [Compound 139], the IC50 amounted to 0.0243 ± 0.0023 µM.
As for `C[C@@H](NC(=O)c1ccc(F)cc1)C(=O)N[C@H](Cc1ccccc1)C(=O)C(=O)NCc1ccccn1` [Compound 140], the IC50 came out at 0.0155 ± 0.001 µM.
Take `C[C@@H](NC(=O)c1cccc(OC(F)(F)F)c1)C(=O)N[C@H](Cc1ccccc1)C(=O)C(=O)NCc1ccccn1` [Compound 143]: the half-maximal inhibitory concentration (IC50) worked out at 0.0164 ± 0.0015 µM.
With `C[C@@H](NC(=O)c1ccc(Cl)cc1)C(=O)N[C@H](Cc1ccccc1)C(=O)C(=O)NCc1ccccn1` [Compound 144], the IC50 worked out at 0.019 ± 0.0003 µM.
`C[C@@H](NC(=O)C1CCCCC1)C(=O)N[C@H](Cc1ccccc1)C(=O)C(=O)NCc1ccccn1` [Compound 146]: the IC50 was 0.0123 ± 0.0002 µM.
With `C[C@@H](NC(=O)C1CCC(C(F)(F)F)CC1)C(=O)N[C@H](Cc1ccccc1)C(=O)C(=O)NCc1ccccn1` (stereo partly shown) [Compound 147], the IC50 was determined as 0.013 ± 0.0007 µM.
As for `C[C@@H](NC(=O)COc1ccc(F)cc1)C(=O)N[C@H](Cc1ccccc1)C(=O)C(=O)NCc1ccccn1` [Compound 148], the IC50 turned out to be 0.0117 ± 0.0024 µM.
`C[C@H](C(=O)N[C@H](Cc1ccccc1)C(=O)C(=O)NCc1ccccn1)N(C)C(=O)c1ccc(F)cc1` [Compound 149]: the concentration for half-maximal inhibition (IC50) amounted to 0.0364 ± 0.0074 µM.
On to `O=C(CNC(=O)[C@@H]1C[C@@H]2[C@H](C1)C2(F)F)N[C@H](Cc1ccccc1)C(=O)C(=O)NCc1ccccn1` [Compound 152], for which the IC50 was found to be 0.0187 ± 0.0006 µM.
Consider `O=C(CNC(=O)c1cnccn1)N[C@H](Cc1ccccc1)C(=O)C(=O)NCc1ccccn1` [Compound 154], for which the IC50 came to 0.193 ± 0.002 µM.
As to `CN(CC(=O)N[C@H](Cc1ccccc1)C(=O)C(=O)NCc1ccccn1)C(=O)C1CCC(F)(F)CC1` [Compound 156], the 50% inhibitory concentration (IC50) came out at 0.0334 ± 0.0009 µM.
With `O=C(CCC1CCC(F)(F)CC1)NC1(C(=O)N[C@H](Cc2ccccc2)C(=O)C(=O)NCc2ccccn2)CC1` [Compound 157], the IC50 amounted to 0.0125 ± 0.0005 µM.
Take `O=C(NCc1ccccn1)C(=O)[C@@H](Cc1ccccc1)NC(=O)C1(NC(=O)c2cnccn2)CC1` [Compound 158]: the IC50 is 0.252 ± 0.009 µM.
In the case of `O=C(NCc1ccccn1)C(=O)[C@@H](Cc1ccccc1)NC(=O)C1(NC(=O)C2CCC(F)(F)CC2)CC1` [Compound 159], the IC50 was determined as 0.0215 ± 0.0057 µM.
Consider `O=C(CC1CCC(F)(F)CC1)NC1(C(=O)N[C@H](Cc2ccccc2)C(=O)C(=O)NCc2ccccn2)CC1` [Compound 160], for which the IC50 was found to be 0.0135 ± 0.0035 µM.
In the case of `O=C(NCc1ccccn1)C(=O)[C@@H](Cc1ccccc1)NC(=O)C1(NC(=O)[C@@H]2C[C@@H]3[C@H](C2)C3(F)F)CC1` [Compound 161], the IC50 was found to be 0.0153 ± 0.0016 µM.
`O=C(NCc1ccccn1)C(=O)[C@@H](Cc1ccccc1)NC(=O)C1(NC(=O)[C@H]2CC[C@@H](F)CC2)CC1` [Compound 162]: the IC50 is 0.0175 ± 0.0008 µM.
Same read-out and setting: with `O=C(NCc1ccccn1)C(=O)[C@@H](Cc1ccccc1)NC(=O)C1(NC(=O)c2cc(Br)cc(OC(F)(F)F)c2)CC1` [Compound 163] the figure was 0.0208 ± 0.0007 µM.
For the compound `O=C(Cc1cc(OC(F)(F)F)ccc1F)NC1(C(=O)N[C@H](Cc2ccccc2)C(=O)C(=O)NCc2ccccn2)CC1` [Compound 164], the IC50 came out at 0.0132 ± 0.0005 µM.
As to `O=C(NCc1ccccn1)C(=O)[C@@H](Cc1ccccc1)NC(=O)C1(NC(=O)c2cc(OC(F)(F)F)ccc2F)CC1` [Compound 165], the IC50 was determined as 0.0203 ± 0.0002 µM.
Still for that read-out and setting: with `O=C(NCc1ccccn1)C(=O)[C@@H](Cc1ccccc1)NC(=O)C1(NC(=O)C2CC23CCC(F)(F)CC3)CC1` (stereo partly shown) [Compound 166] the figure was 0.0233 ± 0.0008 µM.
Consider `O=C(NCc1ccccn1)C(=O)[C@@H](Cc1ccccc1)NC(=O)C1(NC(=O)C2(F)CCCCC2)CC1` [Compound 168], for which the IC50 is 0.0107 ± 0.0004 µM.
With `O=C(NCc1ccccn1)C(=O)[C@@H](Cc1ccccc1)NC(=O)C1(NC(=O)C2CCC(F)(F)CC2)CC1` [Compound 169], the IC50 was 0.0226 ± 0.0037 µM.
In the case of `O=C(NCc1ccccn1)C(=O)[C@@H](Cc1ccccc1)NC(=O)C1(NC(=O)c2ccc(F)cc2)CC1` [Compound 170], the IC50 stood at 0.0194 ± 0.0007 µM.
For `CC(C)(NC(=O)CCC1CCC(F)(F)CC1)C(=O)N[C@H](Cc1ccccc1)C(=O)C(=O)NCc1ccccn1` [Compound 171], the IC50 was determined as 0.0089 ± 0.0004 µM.
For the compound `CC(C)(NC(=O)CC1CCC(F)(F)CC1)C(=O)N[C@H](Cc1ccccc1)C(=O)C(=O)NCc1ccccn1` [Compound 173], the 50% inhibitory concentration (IC50) came out at 0.0103 ± 0.0001 µM.
For the compound `CC(C)(NC(=O)[C@H]1CC[C@@H](F)CC1)C(=O)N[C@H](Cc1ccccc1)C(=O)C(=O)NCc1ccccn1` [Compound 175], the IC50 amounted to 0.0473 ± 0.0028 µM.
Same read-out and setting: with `CC(C)(NC(=O)C1CC12CCC(F)(F)CC2)C(=O)N[C@H](Cc1ccccc1)C(=O)C(=O)NCc1ccccn1` (stereo partly shown) [Compound 176] the figure was 0.0159 µM; with `CC(C)(NC(=O)[C@@H](NC(=O)c1cnccn1)C1CCCCC1)C(=O)N[C@H](Cc1ccccc1)C(=O)C(=O)NCc1ccccn1` [Compound 178], 0.0175 ± 0.0005 µM; with `CC(C)(NC(=O)C(=O)c1ccccc1)C(=O)N[C@H](Cc1ccccc1)C(=O)C(=O)NCc1ccccn1` [Compound 179], 0.0145 ± 0.0019 µM.
For `CC(C)(NC(=O)[C@H](NC(=O)c1cnccn1)C1CCCCC1)C(=O)N[C@H](Cc1ccccc1)C(=O)C(=O)NCc1ccccn1` [Compound 180], the IC50 worked out at 0.0318 ± 0.0009 µM.
As for `CC(C)(NC(=O)c1cc(Cl)cc(OC(F)(F)F)c1)C(=O)N[C@H](Cc1ccccc1)C(=O)C(=O)NCc1ccccn1` [Compound 181], the IC50 amounted to 0.0166 ± 0.0003 µM.
Take `CC(C)(NC(=O)c1ccc2c(c1)OC(F)(F)O2)C(=O)N[C@H](Cc1ccccc1)C(=O)C(=O)NCc1ccccn1` [Compound 182]: the IC50 was determined as 0.0224 ± 0.0005 µM.
For the compound `COc1ccc(OC(F)(F)F)cc1C(=O)NC(C)(C)C(=O)N[C@H](Cc1ccccc1)C(=O)C(=O)NCc1ccccn1` [Compound 183], the IC50 was found to be 0.0219 ± 0.0003 µM.
Still for that read-out and setting: with `CC(C)(NC(=O)c1ccc(F)c(OC(F)(F)F)c1)C(=O)N[C@H](Cc1ccccc1)C(=O)C(=O)NCc1ccccn1` [Compound 184] the figure was 0.0133 ± 0.0002 µM; with `CC(C)(NC(=O)C1(F)CCCCC1)C(=O)N[C@H](Cc1ccccc1)C(=O)C(=O)NCc1ccccn1` [Compound 185], 0.0097 ± 0.0007 µM.
Same read-out and setting: with `CC(C)(NC(=O)c1ccc(F)cc1)C(=O)N[C@H](Cc1ccccc1)C(=O)C(=O)NCc1ccccn1` [Compound 186] the figure was 0.0186 ± 0.0011 µM.
